In one assay the test system is THP-1. As to the kind of experiment: Cell growth inhibition assay (CellTiter-Glo), THP-1. Format: cell-based, human. As to conditions: THP-1 cells, 4 days; for GI50: Homo sapiens, 96 h, half-maximal growth inhibition; for THP-1 TGI: total growth inhibition. The method in brief: (§1)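 A separate day 0 plate allows cytotoxic and cytostatic effects to be distinguished: viable-cell ATP after 4-day compound treatment (top 10 μM, 3-fold steps) is expressed relative to it. DMSO-only wells count as 100% and medium-only wells as −100%.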

For the next assay, the target named is BRD3 (Homo sapiens (Human), UniProt Q15059). The experiment in a line: TR-FRET in-vitro binding assay for BRD3. The conditions noted are these: 45 nM His-Brd3(20-477), acetyl-histone H4 (AcK 5, 8, 12, 16) peptide. Summed up:
(§2)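 Binding is detected by TR-FRET following incubation for 35 minutes at 30° C.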

In a further assay the test system is MV-4-11. As to the kind of experiment: Cell growth inhibition assay (CellTiter-Glo), MV-4-11. Format: cell-based, human. As to conditions: MV-4-11 cells, 4 days; for GI50: Homo sapiens, MV4-11, 96 h, half-maximal growth inhibition; for MV-4-11 TGI: total growth inhibition. The method in brief:
as §1

The target of a further assay is CREBBP (Homo sapiens (Human), UniProt Q92793). As to the kind of experiment: AlphaScreen in-vitro binding assay for CREBBP. The conditions noted are these: 324 nM His-CREBBP (1081-1197), acetyl-histone H4 (AcK 5, 8, 12) peptide. The method in brief: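 IC50 values were derived by non-linear regression of percent inhibition across 8 compound concentrations. Protein was His-tagged CREBBP bromodomain (1081-1197), peptide acetyl-histone H4 (AcK 5, 8, 12), in HEPES pH 7.5 buffer. Read-out was AlphaScreen with Ni-chelate acceptor and streptavidin donor beads, 35 min at 30° C then 60 min at RT.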
Sequence of CREBBP (Q92793 1081-1197): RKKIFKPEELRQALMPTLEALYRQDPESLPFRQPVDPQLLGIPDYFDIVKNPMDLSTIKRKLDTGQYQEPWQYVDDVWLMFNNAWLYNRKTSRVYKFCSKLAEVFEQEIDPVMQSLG

Another assay concerns the target BRD2 (Homo sapiens (Human), UniProt P25440). As to the kind of experiment: TR-FRET in-vitro binding assay for BRD2. As to conditions: 45 nM His-Brd2(60-472), acetyl-histone H4 (AcK 5, 8, 12, 16) peptide. Summed up:
as §2

Another assay concerns the target BRD4 (Homo sapiens (Human), UniProt O60885). The experiment in a line: TR-FRET in-vitro binding assay for BRD4. As to conditions: 45 nM His-Brd4(44-477), acetyl-histone H4 (AcK 5, 8, 12, 16) peptide. Summed up: as §2
The next assay concerns K-562. The experiment in a line: Cell growth inhibition assay (CellTiter-Glo), K-562. The conditions noted are these: K-562 cells, 4 days; for GI50: Homo sapiens, K562, 96 h, half-maximal growth inhibition; for K-562 TGI: total growth inhibition. The format is cell-based, human. The method in brief: as §1

SMILES strings stand for the structures. Some results are limits rather than exact numbers.

Sequence of BRD3 (Q15059 20-477): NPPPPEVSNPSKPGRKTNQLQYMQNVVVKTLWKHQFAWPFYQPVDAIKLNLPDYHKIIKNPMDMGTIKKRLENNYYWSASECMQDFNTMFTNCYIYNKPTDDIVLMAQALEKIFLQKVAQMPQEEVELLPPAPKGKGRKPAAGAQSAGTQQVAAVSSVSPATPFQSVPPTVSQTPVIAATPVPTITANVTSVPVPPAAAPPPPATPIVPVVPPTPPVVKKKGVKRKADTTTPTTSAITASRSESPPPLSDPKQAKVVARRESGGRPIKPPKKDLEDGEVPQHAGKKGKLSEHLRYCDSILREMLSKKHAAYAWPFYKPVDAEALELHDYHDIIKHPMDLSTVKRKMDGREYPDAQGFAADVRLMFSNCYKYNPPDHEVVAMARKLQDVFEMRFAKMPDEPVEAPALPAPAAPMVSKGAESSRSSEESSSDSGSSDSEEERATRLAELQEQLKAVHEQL
Sequence of BRD2 (P25440 60-472): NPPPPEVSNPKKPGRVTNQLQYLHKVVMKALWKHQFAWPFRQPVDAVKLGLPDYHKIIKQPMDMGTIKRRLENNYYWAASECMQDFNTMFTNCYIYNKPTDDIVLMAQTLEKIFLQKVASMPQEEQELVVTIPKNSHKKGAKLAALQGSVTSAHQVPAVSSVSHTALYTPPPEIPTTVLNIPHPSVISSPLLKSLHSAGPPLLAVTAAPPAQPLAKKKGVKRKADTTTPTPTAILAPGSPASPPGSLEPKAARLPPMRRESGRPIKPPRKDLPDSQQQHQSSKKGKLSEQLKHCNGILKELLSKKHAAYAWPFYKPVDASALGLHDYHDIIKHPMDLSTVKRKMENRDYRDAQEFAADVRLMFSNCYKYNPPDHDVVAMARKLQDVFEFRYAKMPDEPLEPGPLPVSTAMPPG

Take `CNC(=O)c1cn(C)c2c1C(=O)N(c1cc(C)c3nnn(C)c3n1)C2c1ccc(Cl)cc1` (centres unmarked) [Example 93, 6-(4-chlorophenyl)-5-(3,7-dimethyl-3H-[1,2,3]triazolo[4,5-b]pyridin-5-yl)-N,1-dimethyl-4-oxo-1,4,5,6-tetrahydropyrrolo[3,4-b]pyrrole-3-carboxamide]: the GI50 in the assay with THP-1 was found to be 3.12 nM; in the assay on MV-4-11 it was 2.54 nM; with K-562, 27.4 nM. Further, the “THP-1 TGI” value in the assay on THP-1 turned out to be 11.24 nM. The IC50 on BRD3 was 14 nM; at CREBBP, more than 37000 nM; on BRD2, 15 nM; on BRD4, 13 nM. The “MV-4-11 TGI” value in the assay with MV-4-11 is 10.49 nM. Besides, the “K-562 TGI” value with K-562 is more than 10000 nM.

As for `Cc1cc(N2C(=O)c3c(C(=O)N(C)C)cn(C)c3C2c2ccc(Cl)cc2)nc2c1nnn2C` (centres unmarked) [Example 94, 6-(4-chlorophenyl)-5-(3,7-dimethyl-3H-[1,2,3]triazolo[4,5-b]pyridin-5-yl)-N,N,1-trimethyl-4-oxo-1,4,5,6-tetrahydropyrrolo[3,4-b]pyrrole-3-carboxamide], the GI50 with THP-1 was 12.4 nM; in the assay with MV-4-11, 8.19 nM; in the assay on K-562, 34.6 nM. Further, in the assay with THP-1, the “THP-1 TGI” value stood at 29.85 nM. Also, the IC50 was 13 nM on BRD3, more than 37000 nM at CREBBP, 17 nM on BRD2 and 12 nM at BRD4. In addition, the “MV-4-11 TGI” value in the assay with MV-4-11 came out at 21.95 nM. For the same molecule, the “K-562 TGI” value in the assay with K-562 is more than 10000 nM.

Take `Cc1cc(N2C(=O)c3c(NC(=O)OC(C)(C)C)cn(C)c3C2c2ccc(Cl)cc2)nc2c1nnn2C` (centres unmarked) [Example 95, Tert-butyl (6-(4-chlorophenyl)-5-(3,7-dimethyl-3H-[1,2,3]triazolo[4,5-b]pyridin-5-yl)-1-methyl-4-oxo-1,4,5,6-tetrahydropyrrolo[3,4-b]pyrrol-3-yl)carbamate]: the 50% growth inhibitory concentration (GI50) is 34.9 nM in the assay with THP-1, 31.4 nM in the assay on MV-4-11 and 123 nM with K-562. Besides, the “THP-1 TGI” value in the assay on THP-1 amounted to 81.5 nM. The IC50 was 26 nM on BRD3, more than 37000 nM at CREBBP, 34 nM at BRD2 and 16 nM at BRD4. Moreover, the “MV-4-11 TGI” value in the assay with MV-4-11 stood at 63.1 nM. Also, in the assay with K-562, the “K-562 TGI” value was more than 10000 nM.

In the case of `CC(=O)Nc1cn(C)c2c1C(=O)N(c1cc(C)c3nnn(C)c3n1)C2c1ccc(Cl)cc1` (centres unmarked) [Example 96, N-(6-(4-chlorophenyl)-5-(3,7-dimethyl-3H-[1,2,3]triazolo[4,5-b]pyridin-5-yl)-1-methyl-4-oxo-1,4,5,6-tetrahydropyrrolo[3,4-b]pyrrol-3-yl)acetamide], the GI50 in the assay with THP-1 worked out at 11.2 nM; in the assay with MV-4-11, 10.9 nM; in the assay with K-562 it was 32.8 nM. In addition, the “THP-1 TGI” value with THP-1 turned out to be 21.25 nM. In addition, the concentration for half-maximal inhibition (IC50) was 17 nM on BRD3, more than 37000 nM at CREBBP, 36 nM at BRD2 and 16 nM on BRD4. In addition, the “MV-4-11 TGI” value with MV-4-11 came out at 21.2 nM. In addition, in the assay with K-562, the “K-562 TGI” value was more than 10000 nM.

In the case of `CCOC(=O)Nc1cn(C)c2c1C(=O)N(c1cc(C)c3nnn(C)c3n1)C2c1ccc(Cl)cc1` (centres unmarked) [Example 97, Ethyl (6-(4-chlorophenyl)-5-(3,7-dimethyl-3H-[1,2,3]triazolo[4,5-b]pyridin-5-yl)-1-methyl-4-oxo-1,4,5,6-tetrahydropyrrolo[3,4-b]pyrrol-3-yl)carbamate], the GI50 stood at 17.9 nM in the assay with THP-1, 13.7 nM in the assay on MV-4-11 and 48.7 nM in the assay with K-562. For the same molecule, the “THP-1 TGI” value with THP-1 came to 33.45 nM. Moreover, the half-inhibitory concentration (IC50) is less than 11 nM on BRD3, more than 37000 nM on CREBBP, 15 nM on BRD2 and 35 nM at BRD4. The “MV-4-11 TGI” value in the assay with MV-4-11 was 24.95 nM. The “K-562 TGI” value in the assay with K-562 was more than 10000 nM.

On to `CNC(=O)c1cn(C)c2c1C(=O)N(c1cc(C)c3nnc(C)n3c1)C2c1ccc(Cl)cc1` (centres unmarked) [Example 99, 6-(4-chlorophenyl)-5-(3,8-dimethyl-[1,2,4]triazolo[4,3-a]pyridin-6-yl)-N,1-dimethyl-4-oxo-1,4,5,6-tetrahydropyrrolo[3,4-b]pyrrole-3-carboxamide], for which the 50% growth inhibitory concentration (GI50) with THP-1 was determined as 27.8 nM; with MV-4-11 it was 13.6 nM; in the assay with K-562, 138 nM. Also, the “THP-1 TGI” value in the assay on THP-1 amounted to 96 nM. In addition, the IC50 on BRD3 was 13 nM; on CREBBP, more than 37000 nM; at BRD2 it was 16 nM; on BRD4, less than 11 nM. For the same molecule, the “MV-4-11 TGI” value with MV-4-11 came to 38.3 nM. Also, the “K-562 TGI” value in the assay on K-562 was more than 10000 nM.

Turning to `Cc1cc(N2C(=O)c3c(C(=O)N(C)C)cn(C)c3C2c2ccc(Cl)cc2)cn2c(C)nnc12` (centres unmarked) [Example 100, 6-(4-chlorophenyl)-5-(3,8-dimethyl-[1,2,4]triazolo[4,3-a]pyridin-6-yl)-N,N,1-trimethyl-4-oxo-1,4,5,6-tetrahydropyrrolo[3,4-b]pyrrole-3-carboxamide], the GI50 with THP-1 was 518 nM; in the assay on MV-4-11 it was 128 nM; in the assay on K-562, 2040 nM. Besides, the “THP-1 TGI” value with THP-1 was 2135 nM. Moreover, the IC50 at BRD3 was 47 nM; at CREBBP it was more than 37000 nM; on BRD2 it was 40 nM; on BRD4, 30 nM. Also, the “MV-4-11 TGI” value with MV-4-11 worked out at 368.5 nM. The “K-562 TGI” value in the assay with K-562 was more than 10000 nM.

Consider `Cc1cc(N2C(=O)c3c(C(N)=O)cn(C)c3C2c2ccc(Cl)cc2)cn2c(C)nnc12` (centres unmarked) [Example 101, 6-(4-chlorophenyl)-5-(3,8-dimethyl-[1,2,4]triazolo[4,3-a]pyridin-6-yl)-1-methyl-4-oxo-1,4,5,6-tetrahydropyrrolo[3,4-b]pyrrole-3-carboxamide], for which the results for the GI50 in the assay with THP-1, in the assay with MV-4-11 and in the assay with K-562 were 150 nM, 57.4 nM and 1300 nM, respectively. In addition, in the assay with THP-1, the “THP-1 TGI” value amounted to 450.5 nM. Besides, the IC50 on BRD3 was 42 nM; at CREBBP, 30600 nM; on BRD2, 54 nM; at BRD4, 41 nM. Further, in the assay with MV-4-11, the “MV-4-11 TGI” value was 160.5 nM. Also, the “K-562 TGI” value in the assay on K-562 was more than 10000 nM.

As to `Cc1cc(N2C(=O)c3c(NC(=O)OC(C)(C)C)cn(C)c3C2c2ccc(Cl)cc2)cn2c(C)nnc12` (centres unmarked) [Example 102, Tert-butyl (6-(4-chlorophenyl)-5-(3,8-dimethyl-[1,2,4]triazolo[4,3-a]pyridin-6-yl)-1-methyl-4-oxo-1,4,5,6-tetrahydropyrrolo[3,4-b]pyrrol-3-yl)carbamate], the concentration for 50% growth inhibition (GI50) was determined as 53.3 nM in the assay with THP-1, 37.3 nM with MV-4-11 and 185 nM in the assay with K-562. Besides, in the assay with THP-1, the “THP-1 TGI” value turned out to be 118 nM. Moreover, the concentration for half-maximal inhibition (IC50) on BRD3 stood at 34 nM; on CREBBP it was 3200 nM; on BRD2 it was 44 nM; at BRD4, 32 nM. Further, in the assay with MV-4-11, the “MV-4-11 TGI” value was found to be 90.4 nM. For the same molecule, the “K-562 TGI” value in the assay with K-562 was more than 10000 nM.

On to `Cc1cc(N2C(=O)c3c(C4CC4)cn(C4COC4)c3C2c2ccc(Cl)cc2)nc2c1nnn2C` (centres unmarked) [Example 104, 6-(4-chlorophenyl)-3-cyclopropyl-5-(3,7-dimethyl-3H-[1,2,3]triazolo[4,5-b]pyridin-5-yl)-1-(oxetan-3-yl)-5,6-dihydropyrrolo[3,4-b]pyrrol-4(1H)-one], for which the GI50 in the assay with THP-1 was 6.31 nM; in the assay with MV-4-11, 2.98 nM; in the assay with K-562, 36.5 nM. Besides, the “THP-1 TGI” value with THP-1 worked out at 18.4 nM. Besides, the IC50 is 21 nM at BRD3, 14800 nM on CREBBP, 35 nM at BRD2 and 21 nM on BRD4. Moreover, the “MV-4-11 TGI” value in the assay on MV-4-11 was determined as 11 nM. In addition, in the assay on K-562, the “K-562 TGI” value is more than 10000 nM.

Take `CC(=O)N1CC(n2cc(C3CC3)c3c2C(c2ccc(Cl)cc2)N(c2cc(C)c4nnn(C)c4n2)C3=O)C1` (centres unmarked) [Example 105, 1-(1-acetylazetidin-3-yl)-6-(4-chlorophenyl)-3-cyclopropyl-5-(3,7-dimethyl-3H-[1,2,3]triazolo[4,5-b]pyridin-5-yl)-5,6-dihydropyrrolo[3,4-b]pyrrol-4(1H)-one]: the values for the concentration for 50% growth inhibition (GI50) in the assay on THP-1, in the assay on MV-4-11 and with K-562 were 0.674 nM, 0.341 nM and 4.76 nM, respectively. Also, the “THP-1 TGI” value with THP-1 came out at 2.38 nM. Besides, the concentration for half-maximal inhibition (IC50) on BRD3 is 12 nM; at CREBBP it was 14100 nM; at BRD2, 13 nM; at BRD4 it was less than 11 nM. The “MV-4-11 TGI” value with MV-4-11 came out at 2.43 nM. In addition, the “K-562 TGI” value with K-562 was more than 10000 nM.

Values taken from patent US9550796B2, “Pyrrolopyrrolone derivatives and their use as BET inhibitors” (NOVARTIS AG, priority 2013, dated 2017).
